Laboratory results: ChEMBL document CHEMBL5550196, “Design, synthesis, and anticancer assessment of structural analogues of (E)-1-((3,4,5-trimethoxybenzylidene)amino)-4-(3,4,5-trimethoxyphenyl)imidazo[1,2-a]quinoxaline-2-carbonitrile (6b), an imidazo[1,2-a]quinoxaline-based non-covalent EGFR inhibitor” (RSC Med Chem, 2024)
Active and inactive are the calls of the source. The calls are words filed in the database; no cut-off is given here.

Legend:
[1] = test system: A549; assay: Downregulation of KRAS gene expression in human A549 cells by SYBR green dye based qPCR analysis; assay type: functional, cell-based
[2] = test system: A549; assay: Downregulation of MAP2K gene expression in human A549 cells by SYBR green dye based qPCR analysis; assay type: functional, cell-based
[3] = test system: A549; assay: Downregulation of EGFR gene expression in human A549 cells by SYBR green dye based qPCR analysis; assay type: functional, cell-based
[4] = test system: A549; assay: Inhibition of oxidative stress in human A549 cells assessed as reduction in ROS production at 1 to 5 uM by DCFH-DA staining based microplate reader analysis; assay type: functional, cell-based; conditions: dose 1-5 µM
[5] = test system: A549; assay: Induction of mitochondrial membrane hyperpolarization in human A549 cells at 1 to 5 uM by JC-1 staining based fluorescence microplate reader assay; assay type: functional, cell-based; conditions: dose 1-5 µM
[6] = test system: A549; assay: cells; conditions: Homo sapiens, A549, 48 h
[7] = test system: MCF7; assay: cells; conditions: Homo sapiens, MCF7, 48 h
[8] = test system: MDA-MB-231; assay: cells; conditions: Homo sapiens, MDA-MB-231, 48 h
[9] = target: T1, Epidermal growth factor receptor (Homo sapiens, UniProt P00533); assay: Inhibition of EGFR (unknown origin) mediated phosphorylation incubated for 2 hrs in presence of ATP by Z-LYTE assay
[10] = target: T1, Epidermal growth factor receptor; conditions: dose 200.0 nM, time 2.0 hrs

T1 sequence (P00533 whole entry): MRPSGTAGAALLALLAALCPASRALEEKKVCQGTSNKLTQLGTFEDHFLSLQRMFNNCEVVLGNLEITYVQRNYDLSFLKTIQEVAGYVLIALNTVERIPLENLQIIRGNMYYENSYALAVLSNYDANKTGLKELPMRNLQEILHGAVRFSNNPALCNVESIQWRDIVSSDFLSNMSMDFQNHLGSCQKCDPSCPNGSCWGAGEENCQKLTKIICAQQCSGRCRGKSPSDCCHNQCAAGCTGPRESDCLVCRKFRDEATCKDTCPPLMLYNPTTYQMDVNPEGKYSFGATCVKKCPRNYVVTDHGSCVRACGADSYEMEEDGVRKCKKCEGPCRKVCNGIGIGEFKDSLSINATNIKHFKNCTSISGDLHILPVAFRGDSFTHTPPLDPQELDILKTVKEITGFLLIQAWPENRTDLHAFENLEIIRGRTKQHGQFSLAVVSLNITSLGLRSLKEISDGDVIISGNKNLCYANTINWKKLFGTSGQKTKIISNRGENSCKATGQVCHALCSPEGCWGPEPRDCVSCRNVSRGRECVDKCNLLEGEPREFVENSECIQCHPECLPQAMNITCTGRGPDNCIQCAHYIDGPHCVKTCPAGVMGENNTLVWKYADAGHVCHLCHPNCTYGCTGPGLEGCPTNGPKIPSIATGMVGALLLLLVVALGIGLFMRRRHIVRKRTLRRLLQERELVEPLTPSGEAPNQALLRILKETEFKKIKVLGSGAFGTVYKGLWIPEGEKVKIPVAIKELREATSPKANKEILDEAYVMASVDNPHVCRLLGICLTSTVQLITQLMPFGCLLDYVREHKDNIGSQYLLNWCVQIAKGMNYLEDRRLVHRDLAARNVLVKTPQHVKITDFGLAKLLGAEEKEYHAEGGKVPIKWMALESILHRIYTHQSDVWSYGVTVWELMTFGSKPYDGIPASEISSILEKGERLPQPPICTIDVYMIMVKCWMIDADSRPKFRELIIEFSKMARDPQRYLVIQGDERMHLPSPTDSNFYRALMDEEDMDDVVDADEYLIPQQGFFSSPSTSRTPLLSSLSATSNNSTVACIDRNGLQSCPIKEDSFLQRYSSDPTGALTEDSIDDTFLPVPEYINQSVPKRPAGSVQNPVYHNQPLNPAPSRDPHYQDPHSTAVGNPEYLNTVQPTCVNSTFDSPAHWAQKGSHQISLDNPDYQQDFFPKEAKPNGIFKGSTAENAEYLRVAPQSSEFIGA

Compound	Activity [1]	Activity [2]	Activity [3]	inhibition [4]	Activity [5]	IC50 [6] [µM]	IC50 [7] [µM]	IC50 [8] [µM]	IC50 [9] [µM]	inhibition [10] [%]
COc1cc(-c2nc3ccccc3n3c(/N=C/c4ccsc4)c(C#N)nc23)cc(OC)c1OC	Active	Active	Active	Active	Active	1.34	14.3	> 25	–	–
COc1cc(-c2nc3ccccc3n3c(/N=C/c4ccc(N(C)C)cc4)c(C#N)nc23)cc(OC)c1OC	–	–	–	–	–	13.2	24	6.41	–	–
COc1cc(-c2nc3ccccc3n3c(/N=C/c4cccnc4)c(C#N)nc23)cc(OC)c1OC	–	–	–	–	–	4.27	23.9	8.66	–	–
COc1cc(-c2nc3ccccc3n3c(/N=C/c4ccc(Cl)cc4)c(C#N)nc23)cc(OC)c1OC	–	–	–	–	–	4.43	3.82	5.94	–	–
C#Cc1cccc(Nc2ncnc3cc(OCCOC)c(OCCOC)cc23)c1	Active	Active	Active	–	–	–	–	–	–	–
COc1cc(-c2nc3ccccc3n3c(/N=C/c4c[nH]c5ccccc45)c(C#N)nc23)cc(OC)c1OC	–	–	–	–	–	> 25	8.99	> 25	–	–
COc1cc(-c2nc3ccccc3n3c(/N=C/c4ccncc4)c(C#N)nc23)cc(OC)c1OC	–	–	–	–	–	16.5	13.1	8.88	–	–
COc1cc(-c2nc3ccccc3n3c(/N=C/c4cc(F)ccc4[N+](=O)[O-])c(C#N)nc23)cc(OC)c1OC	–	–	–	–	–	3.25	9.99	11.4	–	–
COc1cccc(/C=N/c2c(C#N)nc3c(-c4cc(OC)c(OC)c(OC)c4)nc4ccccc4n23)c1	Active	Active	Active	Active	Active	3.53	13.6	5.77	0.0759	> 50
